Calls of active or inactive are those of the source. No cut-off for these calls is given here.
Columns and labels:
[1] = tested on: Mus musculus; test: Anti-inflammatory activity in ICR mouse assessed as inhibition of xylene induced ear edema pretreated orally for 30 mins followed by xylene challenge measured after 2 hrs; format: functional
[2] = tested on: HUVEC; test: Protection against simulated ischemia/reperfusion injury-induced cell death in HUVEC assessed as increase in cell viability at 30 ug/ml treated for 12 hrs under normoxic condition prior to simulated ischemia for 2 hrs followed by compound washout measured 3 hrs post reperfusion; format: functional, cell-based; conditions: Homo sapiens
[3] = tested on: Mus musculus; test: Toxicity in mouse assessed as tail bleeding time at 0.50 mmol/kg, po administered 60 mins prior to tail transection measured every 30 secs (reference value: 120.4 +/- 7.9 sec); format: organism-based; conditions: in vivo
[4] = tested on: Mus musculus; test: Toxicity in mouse assessed as tail bleeding time at 0.50 mmol/kg, po administered 30 mins prior to tail transection measured every 30 secs (reference value: 120.5 +/- 7.9 sec); format: organism-based; conditions: in vivo
[5] = tested on: Mus musculus; test: Anti-inflammatory activity in ICR mouse assessed as inhibition of xylene induced ear edema at 0.10 mmol/kg pretreated orally for 30 mins followed by xylene challenge measured after 2 hrs relative to control; format: functional; conditions: po
[6] = tested on: Mus musculus; test: Anti-inflammatory activity in xylene induced ICR mouse ear edema model assessed as edema weight at 0.10 mmol/kg, po pretreated 30 mins followed by xylene challenge measured after 2 hrs (reference value: 4.07 +/- 0.51 mg); format: functional
[7] = tested on: Mus musculus; test: Toxicity in mouse assessed as tail bleeding time at 0.50 mmol/kg, po administered 45 mins prior to tail transection measured every 30 secs (reference value: 119.8 +/- 8.4 sec); format: organism-based; conditions: in vivo
[8] = tested on: Mus musculus; test: Toxicity in mouse assessed as tail bleeding time at 0.50 mmol/kg, po administered 90 mins prior to tail transection measured every 30 secs (reference value: 119.3 +/- 7.7 sec); format: organism-based; conditions: in vivo
[9] = tested on: Rattus norvegicus; test: (§1) Protection against ischemia/reperfusion-induced Wistar rat intestinal injury model assessed as effect on TNFalpha levels at 30 mg/kg administered as bolus dose pretreated for 5 mins followed by 12 hrs reperfusion and subsequent compound addition at 10 mg/kg administered at 1 hr interval during reperfusion period by ELISA (reference value: 62.9 +/- 8.7 pg/ml); format: functional
[10] = tested on: Rattus norvegicus; test: as §1, with “reduction in lipid peroxidation by measuring lipid peroxide” for “effect on TNFalpha”, “period measured at 1.5 to 12 hrs post reperfusion” for “period”, “spectrophotometric method” for “ELISA (reference value: 62.9 +/- 8.7 pg/ml)”; format: functional, organism-based

Structure (SMILES)	inhibition [1]	Activity [2]	Time [3]	Time [4]	inhibition in vivo at 100 µmol/kg [5]	Activity [6]	Time [7]	Time [8]	Activity [9]	Activity [10]
CC1(C)CC(n2cc(CNC(=O)[C@@H](Cc3ccc(O)cc3)NC(=O)[C@@H]3Cc4c([nH]c5ccccc45)CN3C(=O)[C@@H]3Cc4c([nH]c5ccccc45)CN3)nn2)CC(C)(C)N1[O]	Dose-dependent effect	Active	117.5 s	117.2 s	60%	1.63 mg	118 s	118.6 s		
CC1(C)CC(n2cc(CNC(=O)[C@@H](CCC(N)=O)NC(=O)[C@@H]3Cc4c([nH]c5ccccc45)CN3C(=O)[C@@H]3Cc4c([nH]c5ccccc45)CN3)nn2)CC(C)(C)N1[O]			120.6 s	117.4 s	47.7%	2.13 mg	119.6 s	119.3 s		
CC(C)C[C@@H](NC(=O)[C@@H]1Cc2c([nH]c3ccccc23)CN1C(=O)[C@@H]1Cc2c([nH]c3ccccc23)CN1)C(=O)NCc1cn(C2CC(C)(C)N([O])C(C)(C)C2)nn1			119.8 s	121 s	47%	2.16 mg	120.7 s	119.1 s		
C[C@@H](NC(=O)[C@@H]1Cc2c([nH]c3ccccc23)CN1C(=O)[C@@H]1Cc2c([nH]c3ccccc23)CN1)C(=O)NCc1cn(C2CC(C)(C)N([O])C(C)(C)C2)nn1			117.7 s	119.6 s	32.9%	2.73 mg	115.3 s	119.8 s		
CC1(C)CC(n2cc(CNC(=O)[C@@H](Cc3ccccc3)NC(=O)[C@@H]3Cc4c([nH]c5ccccc45)CN3C(=O)[C@@H]3Cc4c([nH]c5ccccc45)CN3)nn2)CC(C)(C)N1[O]			117.6 s	119.4 s	45.9%	2.2 mg	119.1 s	119 s		
CSCC[C@@H](NC(=O)[C@@H]1Cc2c([nH]c3ccccc23)CN1C(=O)[C@@H]1Cc2c([nH]c3ccccc23)CN1)C(=O)NCc1cn(C2CC(C)(C)N([O])C(C)(C)C2)nn1			119.6 s	119.3 s	43.5%	2.3 mg	118.4 s	117.9 s		
CC[C@@H](C)[C@@H](NC(=O)[C@@H]1Cc2c([nH]c3ccccc23)CN1C(=O)[C@@H]1Cc2c([nH]c3ccccc23)CN1)C(=O)NCc1cn(C2CC(C)(C)N([O])C(C)(C)C2)nn1			116.1 s	119.7 s	44.7%	2.25 mg	117.5 s	121.7 s		
CC1(C)CC(n2cc(CNC(=O)[C@@H](CCCNC(=N)N([N+](=O)[O-])[N+](=O)[O-])NC(=O)[C@@H]3Cc4c([nH]c5ccccc45)CN3C(=O)[C@@H]3Cc4c([nH]c5ccccc45)CN3)nn2)CC(C)(C)N1[O]	Dose-dependent effect	Active	119.8 s	121.8 s	63.1%	1.5 mg	120.2 s	119.7 s		
CC1(C)CC(n2cc(CNC(=O)[C@@H](Cc3c[nH]c4ccccc34)NC(=O)[C@@H]3Cc4c([nH]c5ccccc45)CN3C(=O)[C@@H]3Cc4c([nH]c5ccccc45)CN3)nn2)CC(C)(C)N1[O]			121.8 s	119.4 s	50.4%	2.02 mg	120.3 s	117.3 s		
CC1(C)CC(n2cc(CNC(=O)[C@@H](CC(N)=O)NC(=O)[C@@H]3Cc4c([nH]c5ccccc45)CN3C(=O)[C@@H]3Cc4c([nH]c5ccccc45)CN3)nn2)CC(C)(C)N1[O]	Dose-dependent effect	Active	119.5 s	119.7 s	56.3%	1.78 mg	118.4 s	119.2 s		
CC1(C)CC(n2cc(CNC(=O)[C@H]3CCCN3C(=O)[C@@H]3Cc4c([nH]c5ccccc45)CN3C(=O)[C@@H]3Cc4c([nH]c5ccccc45)CN3)nn2)CC(C)(C)N1[O]			121.4 s	119.9 s	43.2%	2.31 mg	119.5 s	119.7 s		
CC1(C)CC(n2cc(CNC(=O)[C@@H](Cc3c[nH]cn3)NC(=O)[C@@H]3Cc4c([nH]c5ccccc45)CN3C(=O)[C@@H]3Cc4c([nH]c5ccccc45)CN3)nn2)CC(C)(C)N1[O]			119.5 s	119 s	48.6%	2.09 mg	120.5 s	118 s		
CC1(C)CC(O)CC(C)(C)N1[O] [TEMPOL]									25.2 pg/mL	Active
CC1(C)CC(n2cc(CNC(=O)[C@@H](CO)NC(=O)[C@@H]3Cc4c([nH]c5ccccc45)CN3C(=O)[C@@H]3Cc4c([nH]c5ccccc45)CN3)nn2)CC(C)(C)N1[O]			122.5 s	121.1 s	40.5%	2.42 mg	119.7 s	118.6 s		
C[C@@H](O)[C@@H](NC(=O)[C@@H]1Cc2c([nH]c3ccccc23)CN1C(=O)[C@@H]1Cc2c([nH]c3ccccc23)CN1)C(=O)NCc1cn(C2CC(C)(C)N([O])C(C)(C)C2)nn1			118.5 s	116.9 s	47.2%	2.15 mg	117.3 s	117.4 s		
CC1(C)CC(n2cc(CNC(=O)CNC(=O)[C@@H]3Cc4c([nH]c5ccccc45)CN3C(=O)[C@@H]3Cc4c([nH]c5ccccc45)CN3)nn2)CC(C)(C)N1[O]			116.4 s	117.7 s	34.7%	2.65 mg	114.5 s	115.8 s		
CC1(C)CC(n2cc(CNC(=O)[C@@H](CCCCN)NC(=O)[C@@H]3Cc4c([nH]c5ccccc45)CN3C(=O)[C@@H]3Cc4c([nH]c5ccccc45)CN3)nn2)CC(C)(C)N1[O]	Dose-dependent effect	Active	120.5 s	121.4 s	57%	1.75 mg	119.8 s	118.5 s		
CC(C)[C@@H](NC(=O)[C@@H]1Cc2c([nH]c3ccccc23)CN1C(=O)[C@@H]1Cc2c([nH]c3ccccc23)CN1)C(=O)NCc1cn(C2CC(C)(C)N([O])C(C)(C)C2)nn1			120.4 s	116.4 s	36.6%	2.58 mg	119.3 s	118.7 s		

— ChEMBL document CHEMBL4028817, “Indole-TEMPO conjugates alleviate ischemia-reperfusion injury via attenuation of oxidative stress and preservation of mitochondrial function” (Bioorg Med Chem, 2017)
